{
  "source": "ChEMBL document CHEMBL1201862",
  "about": "“PubChem BioAssay data set” (2004)",
  "key": {"Cryptococcus neoformans [1]": {"tested_on": "Cryptococcus neoformans", "test": "PubChem AID 686997", "type": "functional, organism-based"}, "Cryptococcus neoformans [2]": {"tested_on": "Cryptococcus neoformans", "test": "Cryptococcus growth inhibition by alamar blue – cell lysis, cherry-picks, replicate tests, mechanism study for C. neoformans antifungal project, dose response (AID 686999)", "type": "functional, organism-based"}, "[3]": {"molecular_target": "T1, Sentrin-specific protease 1 (Homo sapiens, UniProt Q9P0U3)", "T1 sequence (Q9P0U3 whole entry)": "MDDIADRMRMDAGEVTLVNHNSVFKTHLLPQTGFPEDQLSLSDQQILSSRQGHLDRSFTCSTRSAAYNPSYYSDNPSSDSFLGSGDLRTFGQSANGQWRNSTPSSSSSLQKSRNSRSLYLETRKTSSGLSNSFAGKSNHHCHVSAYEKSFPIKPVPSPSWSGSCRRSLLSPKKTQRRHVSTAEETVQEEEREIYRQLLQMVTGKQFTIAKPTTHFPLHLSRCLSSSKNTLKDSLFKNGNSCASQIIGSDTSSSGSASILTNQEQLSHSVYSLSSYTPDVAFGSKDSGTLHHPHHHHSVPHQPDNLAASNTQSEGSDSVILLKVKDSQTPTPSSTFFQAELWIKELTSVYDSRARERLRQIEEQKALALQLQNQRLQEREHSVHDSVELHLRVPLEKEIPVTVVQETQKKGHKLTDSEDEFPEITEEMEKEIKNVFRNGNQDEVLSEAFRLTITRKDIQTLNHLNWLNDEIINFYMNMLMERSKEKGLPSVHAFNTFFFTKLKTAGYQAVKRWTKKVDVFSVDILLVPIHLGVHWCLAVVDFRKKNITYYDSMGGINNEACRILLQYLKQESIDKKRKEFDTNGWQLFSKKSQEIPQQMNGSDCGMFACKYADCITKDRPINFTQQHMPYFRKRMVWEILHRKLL", "test": "potency of human SENP1 inhibitors, dose response, biochemical, kinetic FRET (AID 651697)", "type": "functional", "settings": "read-out: IC50_Mean"}, "[4]": {"molecular_target": "T2, Probable nicotinate-nucleotide adenylyltransferase (Staphylococcus aureus (strain N315), UniProt P65502)", "type": "functional, Staphylococcus aureus subsp. aureus N315"}, "[5]": {"molecular_target": "T2, Probable nicotinate-nucleotide adenylyltransferase", "type": "functional, Staphylococcus aureus subsp. aureus N315", "settings": "read-out: IC50_Mean"}, "[6]": {"molecular_target": "T1, Sentrin-specific protease 1", "test": "Dose response confirmation of small molecule inhibitors of the catalytic domain of the SUMO protease, SENP1 in a FRET assay.", "type": "functional", "settings": "read-out: IC50_Mean"}, "[7]": {"molecular_target": "T3, Sentrin-specific protease 8 (Homo sapiens, UniProt Q96LD8)", "T3 sequence (Q96LD8 whole entry)": "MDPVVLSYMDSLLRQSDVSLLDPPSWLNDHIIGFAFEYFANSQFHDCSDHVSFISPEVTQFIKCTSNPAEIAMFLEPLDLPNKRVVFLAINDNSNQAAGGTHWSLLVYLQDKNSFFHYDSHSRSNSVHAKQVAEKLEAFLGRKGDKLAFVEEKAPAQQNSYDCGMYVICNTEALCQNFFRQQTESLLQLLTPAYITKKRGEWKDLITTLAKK", "type": "functional"}, "[8]": {"molecular_target": "T3, Sentrin-specific protease 8", "type": "functional", "remark": "listed apart in the source"}, "Beta-lactamase [9]": {"molecular_target": "T4, Beta-lactamase (Salmonella choleraesuis (strain SC-B67), UniProt Q5J463)", "test": "Epi-absorbance-based counterscreen for selective VIM-2 inhibitors: dose response biochemical high throughput screening assay to identify inhibitors of TEM-1 serine-beta-lactamase."}, "Beta-lactamase [10]": {"molecular_target": "T5, Beta-lactamase (Pseudomonas aeruginosa, UniProt Q79MP6)", "test": "IMP-1 metallo-beta-lactamase inhibitors, dose response, selectivity assay for VIM-2 inhibitor project, biochemical, epi-absorbance (AID 1920)"}, "Beta-lactamase [11]": {"molecular_target": "T5, Beta-lactamase", "test": "[…] counterscreen for selective VIM-2 inhibitors: dose response biochemical high throughput screening assay to identify inhibitors of IMP-1 metallo-beta-lactamase."}, "Beta-lactamase [12]": {"molecular_target": "T4, Beta-lactamase", "test": "Late stage results from the probe development efforts to identify selective inhibitors of VIM-2 metallo-beta-lactamase: probe results. Panel member name: Nitrocefin-based TEM-1 Inhibition Counterscreen"}, "Beta Lactamase [13]": {"molecular_target": "T6, Beta Lactamase (Pseudomonas aeruginosa, UniProt Q932Y6)", "test": "VIM-2 metallo-beta-lactamase inhibition constant, late-stage follow-up, mechanism study, biochemical, probe results, panel member Nitrocefin-based IMP1 Inhibition Counterscreen (AID 2128)"}, "Beta Lactamase [14]": {"molecular_target": "T6, Beta Lactamase", "test": "VIM-2 metallo-beta-lactamase inhibition constant, late-stage follow-up, mechanism study, biochemical, probe results, panel member Nitrocefin-based VIM2 Inhibition Assay (AID 2128)"}, "[15]": {"molecular_target": "T7, Small ubiquitin-related modifier 1 (Homo sapiens, UniProt P63165)", "test": "inhibitors of SUMO1 peptide binding, dose response, biochemical, fluorescence polarization, uHTS hits (AID 624382)", "type": "functional", "settings": "read-out: IC50_Mean"}, "[16]": {"molecular_target": "T7, Small ubiquitin-related modifier 1", "test": "inhibitors of SUMO1 partner interactions, dose response, biochemical, FRET (AID 624383)", "type": "functional", "settings": "read-out: IC50_Mean"}, "[17]": {"test": "P. falciparum late gametocyte killing, dose response, luminescence (AID 1117278);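 further: gametocytes exposed to compound for 24 hours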", "type": "functional, cell-based"}, "[18]": {"test": "Jurkat T cell cytotoxicity, dose response, cytotoxicity control for P. falciparum gametocyte viability project, luminescence (AID 1117277);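 further: potency reflects loss of cellular ATP meaning fewer viable cells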", "type": "functional, cell-based"}, "[19]": {"test": "T. cruzi growth inhibition in host cells, dose response, cell-based, plate reader, dry powder, set 2 (AID 652275)", "type": "functional"}, "[20]": {"molecular_target": "ADP-ribosylation factor GTPase-activating protein 1 (Rattus norvegicus, UniProt Q62848)", "test": "Fluorescence polarization-based biochemical high throughput dose response screening assay to identify inhibitors of ADP-ribosylation factor GTPase activating protein 1 (ARFGAP1).", "type": "functional"}, "[21]": {"test": "HEK293T cell cytotoxicity, dose response, cytotoxicity control for HIV Vif inhibitor project, cherry-picks (AID 652208)", "type": "functional, cell-based"}, "[22]": {"molecular_target": "T8, Botulinum neurotoxin type A (Clostridium botulinum (strain Hall / ATCC 3502 / NCTC 13319 / Type A), UniProt P0DPI1)", "test": "High-throughput multiplex microsphere dose response for inhibitors of toxin protease, specifically Botulinum neurotoxin light chain A protease, compounds from Powder Set 01.", "type": "functional, Clostridium botulinum A str. ATCC 3502", "settings": "read-out: EC50_MICROM"}, "[23]": {"molecular_target": "Botulinum neurotoxin type F (Clostridium botulinum, UniProt P30996)", "test": "High-throughput multiplex microsphere dose response for inhibitors of toxin protease, specifically Botulinum neurotoxin light chain F protease, compounds from Powder Set 01.", "type": "functional, Clostridium botulinum Bf", "settings": "read-out: EC50_MICROM"}, "Lethal factor": {"molecular_target": "Lethal factor (Bacillus anthracis, UniProt P15917)", "test": "High-throughput multiplex microsphere dose response for inhibitors of toxin protease, specifically Lethal Factor protease, compounds from Powder Set 01.", "type": "functional, Bacillus anthracis str. A2012", "settings": "read-out: EC50_MICROM"}, "[24]": {"molecular_target": "T8, Botulinum neurotoxin type A", "test": "Confirmatory FRET assay using full length substrates for Botulinum neurotoxin light chain A protease, with Powder Set01.", "type": "functional"}},
  "note": "Calls of active or inactive are those of the source.",
  "data": [
    {"compound": "COC(=O)C1=C(C)N(Cc2ccc(Cl)cc2)C(=S)NC1c1ccc(Br)cc1", "note": "(stereo not given)", "values": [
      {"measurement": "AC50", "setting": "Cryptococcus neoformans [1]", "result": "27.3 µM (active)"},
      {"measurement": "AC50", "setting": "Cryptococcus neoformans [2]", "result": "29.1 µM (active)"}
    ]},
    {"compound": "CCOC(=O)C1=C(C)N=c2sc(=Cc3cc(Cl)c(OCC(=O)O)c(Cl)c3)c(=O)n2C1c1cccc(OC)c1", "note": "(stereo not given)", "values": [
      {"measurement": "IC50", "setting": "[3]", "result": "19.6 µM (active)"},
      {"measurement": "IC50", "setting": "[4]", "result": "5.18 µM (active)"},
      {"measurement": "IC50", "setting": "[5]", "result": "19.2 µM (active)"},
      {"measurement": "IC50", "setting": "[6]", "result": "12.8 µM (active)"}
    ]},
    {"compound": "O=C(CCS(=O)(=O)Cc1ccccc1F)N1CCc2ccccc2C1", "values": [
      {"measurement": "IC50", "setting": "[7]", "result": "> 100 µM (inactive)"},
      {"measurement": "IC50", "setting": "[8]", "result": "7.69 µM (active)"}
    ]},
    {"compound": "O=c1[nH]c2c(s1)C(c1cccnc1)C1C3CCC(C3)C1S2", "note": "(stereo not given)", "values": [
      {"measurement": "IC50", "setting": "Beta-lactamase [9]", "result": "> 59.6 µM (inactive)"},
      {"measurement": "IC50", "setting": "Beta-lactamase [10]", "result": "> 59.6 µM (inactive)"},
      {"measurement": "IC50", "setting": "Beta-lactamase [11]", "result": "> 59.6 µM (inactive)"},
      {"measurement": "IC50", "setting": "Beta-lactamase [12]", "result": "> 60 µM (active)"},
      {"measurement": "IC50", "setting": "Beta Lactamase [13]", "result": "> 60 µM (inactive)"},
      {"measurement": "IC50", "setting": "Beta Lactamase [14]", "result": "0.223 µM (active)"}
    ]},
    {"compound": "Cc1ccc(N2C(=S)SC3CS(=O)(=O)CC32)cc1", "note": "(stereo not given)", "values": [
      {"measurement": "IC50", "setting": "[15]", "result": "> 66.6 µM (inactive)"},
      {"measurement": "IC50", "setting": "[16]", "result": "100 µM (inactive)"},
      {"measurement": "IC50", "setting": "[17]", "result": "> 109 µM (inactive)"},
      {"measurement": "IC50", "setting": "[18]", "result": "> 83.2 µM (inactive)"}
    ]},
    {"compound": "CC(C)N1C[C@H](C)[C@@H](CN(C)Cc2ccc(F)cc2)Oc2c(C(=O)Nc3ccncc3)cccc2C1=O", "values": [
      {"measurement": "AC50", "setting": "[19]", "result": "0.313 µM (active)"}
    ]},
    {"compound": "COc1ccc(-n2nc(C(=O)NCC(=O)Nc3cccc(Cl)c3)c3ccccc3c2=O)cc1OC", "values": [
      {"measurement": "IC50", "setting": "[20]", "result": "83.9 µM (inactive)"},
      {"measurement": "AC50", "setting": "[21]", "result": "17.4 µM (active)"}
    ]},
    {"compound": "O=C(Nc1ccc2nc(-c3cccs3)c(-c3cccs3)nc2c1)N1CCCCC1", "values": [
      {"measurement": "EC50", "setting": "[22]", "result": "6.1 µM (active)"},
      {"measurement": "EC50", "setting": "[23]", "result": "4.6 µM (active)"},
      {"measurement": "EC50", "setting": "Lethal factor", "result": "6.7 µM (active)"},
      {"measurement": "EC50", "setting": "[24]", "result": "6.9 µM (active)"}
    ]}
  ]
}
